Source: ChEMBL document CHEMBL1140423, “(6,7-Dimethoxy-2,4-dihydroindeno[1,2-c]pyrazol-3-yl)phenylamines: platelet-derived growth factor receptor tyrosine kinase inhibitors with broad antiproliferative activity against tumor cells” (J Med Chem, 2005)

Columns and labels:
[1] = molecular target: Platelet-derived growth factor receptor beta (Homo sapiens, UniProt P09619); test: Inhibitory activity against PDGFRbeta kinase
HUVEC = test: Antiproliferative activity against LSGS stimulated HUVEC; type: functional, cell-based; conditions: Homo sapiens
[2] = molecular target: Cyclin-dependent kinase 1 (Homo sapiens, UniProt P06493); test: Inhibitory activity against CDK1
[3] = molecular target: Cyclin-dependent kinase 2 (Homo sapiens, UniProt P24941); test: Inhibitory activity against CDK2
NCI-H460 = test: Antiproliferative activity against human lung tumor cell line H460; type: functional, cell-based
[4] = molecular target: Tyrosine-protein kinase Fyn (Homo sapiens, UniProt P06241); test: Inhibitory activity against FYN
[5] = Inhibitory activity against Calmodulin Kinase
A-375 = test: Antiproliferative activity against human melanoma tumor cell line A375; type: functional, cell-based
[6] = molecular target: Fibroblast growth factor receptor 1 (Homo sapiens, UniProt P11362); test: Inhibitory activity against bFGFR1
PC-3 = test: Antiproliferative activity against human prostate tumor cell line PC3; type: functional, cell-based
Focal adhesion kinase 1 = Focal adhesion kinase 1 (Homo sapiens, UniProt Q05397); test: Inhibitory activity against FAK
Chain of Focal adhesion kinase 1 (Q05397 whole entry): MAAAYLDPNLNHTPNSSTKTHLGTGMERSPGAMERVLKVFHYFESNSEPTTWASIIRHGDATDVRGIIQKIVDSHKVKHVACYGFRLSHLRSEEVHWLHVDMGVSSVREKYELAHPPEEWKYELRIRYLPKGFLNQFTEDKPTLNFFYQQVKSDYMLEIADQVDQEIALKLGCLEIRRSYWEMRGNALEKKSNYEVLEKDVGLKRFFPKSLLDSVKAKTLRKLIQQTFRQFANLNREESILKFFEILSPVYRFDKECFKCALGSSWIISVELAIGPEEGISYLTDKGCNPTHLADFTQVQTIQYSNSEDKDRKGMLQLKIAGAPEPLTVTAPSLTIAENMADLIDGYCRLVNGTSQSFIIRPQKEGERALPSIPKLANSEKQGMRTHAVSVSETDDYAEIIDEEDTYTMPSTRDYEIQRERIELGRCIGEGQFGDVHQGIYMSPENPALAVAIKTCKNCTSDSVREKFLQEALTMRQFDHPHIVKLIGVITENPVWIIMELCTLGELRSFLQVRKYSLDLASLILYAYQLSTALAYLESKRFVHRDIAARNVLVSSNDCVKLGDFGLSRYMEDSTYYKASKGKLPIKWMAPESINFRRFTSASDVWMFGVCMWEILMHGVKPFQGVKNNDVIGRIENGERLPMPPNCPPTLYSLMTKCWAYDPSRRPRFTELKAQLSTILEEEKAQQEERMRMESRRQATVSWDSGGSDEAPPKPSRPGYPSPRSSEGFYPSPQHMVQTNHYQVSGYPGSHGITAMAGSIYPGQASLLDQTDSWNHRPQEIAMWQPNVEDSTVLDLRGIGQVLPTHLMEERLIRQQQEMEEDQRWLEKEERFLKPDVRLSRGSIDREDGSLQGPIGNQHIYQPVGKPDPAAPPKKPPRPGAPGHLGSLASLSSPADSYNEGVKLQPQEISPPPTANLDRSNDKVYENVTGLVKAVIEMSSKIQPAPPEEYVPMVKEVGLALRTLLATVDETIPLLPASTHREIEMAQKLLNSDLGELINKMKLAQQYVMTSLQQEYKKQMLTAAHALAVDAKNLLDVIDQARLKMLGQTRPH

U-87 MG = test: Antiproliferative activity against human glioma tumor cell line U87MG; type: functional, cell-based, U-87MG ATCC
[7] = molecular target: Vascular endothelial growth factor receptor (Homo sapiens, UniProt P17948+P35916+P35968); test: Inhibitory activity against VEGFR; type: protein assay
[8] = molecular target: Platelet-derived growth factor receptor alpha (Homo sapiens, UniProt P16234); test: Inhibitory activity against PDGFRalpha
LoVo = test: Antiproliferative activity against human colon tumor cell line LoVo; type: functional, cell-based
Insulin receptor = Insulin receptor (Homo sapiens, UniProt P06213); test: Inhibitory activity against IRK
[9] = molecular target: cAMP-dependent protein kinase (PKA) (Homo sapiens, UniProt P22694+P17612+P22612); test: Inhibitory activity against PKA; type: protein assay
[10] = molecular target: Mitogen-activated protein kinase 1 (Homo sapiens, UniProt P28482); test: Inhibitory activity against MAPK
Chain of Mitogen-activated protein kinase 1 (P28482 whole entry): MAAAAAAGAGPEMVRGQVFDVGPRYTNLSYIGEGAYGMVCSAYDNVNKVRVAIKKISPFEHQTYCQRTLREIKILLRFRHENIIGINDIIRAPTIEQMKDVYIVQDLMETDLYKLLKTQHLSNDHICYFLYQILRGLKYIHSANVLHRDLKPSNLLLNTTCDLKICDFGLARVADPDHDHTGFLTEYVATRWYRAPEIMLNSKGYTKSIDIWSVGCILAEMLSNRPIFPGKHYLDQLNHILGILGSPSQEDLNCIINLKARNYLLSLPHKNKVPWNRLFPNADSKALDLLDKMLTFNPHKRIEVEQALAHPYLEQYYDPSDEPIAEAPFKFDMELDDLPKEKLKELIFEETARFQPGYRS

[11] = molecular target: Receptor tyrosine-protein kinase erbB-2 (Homo sapiens, UniProt P04626); test: Inhibitory activity against HER2
Chain of Receptor tyrosine-protein kinase erbB-2 (P04626 whole entry): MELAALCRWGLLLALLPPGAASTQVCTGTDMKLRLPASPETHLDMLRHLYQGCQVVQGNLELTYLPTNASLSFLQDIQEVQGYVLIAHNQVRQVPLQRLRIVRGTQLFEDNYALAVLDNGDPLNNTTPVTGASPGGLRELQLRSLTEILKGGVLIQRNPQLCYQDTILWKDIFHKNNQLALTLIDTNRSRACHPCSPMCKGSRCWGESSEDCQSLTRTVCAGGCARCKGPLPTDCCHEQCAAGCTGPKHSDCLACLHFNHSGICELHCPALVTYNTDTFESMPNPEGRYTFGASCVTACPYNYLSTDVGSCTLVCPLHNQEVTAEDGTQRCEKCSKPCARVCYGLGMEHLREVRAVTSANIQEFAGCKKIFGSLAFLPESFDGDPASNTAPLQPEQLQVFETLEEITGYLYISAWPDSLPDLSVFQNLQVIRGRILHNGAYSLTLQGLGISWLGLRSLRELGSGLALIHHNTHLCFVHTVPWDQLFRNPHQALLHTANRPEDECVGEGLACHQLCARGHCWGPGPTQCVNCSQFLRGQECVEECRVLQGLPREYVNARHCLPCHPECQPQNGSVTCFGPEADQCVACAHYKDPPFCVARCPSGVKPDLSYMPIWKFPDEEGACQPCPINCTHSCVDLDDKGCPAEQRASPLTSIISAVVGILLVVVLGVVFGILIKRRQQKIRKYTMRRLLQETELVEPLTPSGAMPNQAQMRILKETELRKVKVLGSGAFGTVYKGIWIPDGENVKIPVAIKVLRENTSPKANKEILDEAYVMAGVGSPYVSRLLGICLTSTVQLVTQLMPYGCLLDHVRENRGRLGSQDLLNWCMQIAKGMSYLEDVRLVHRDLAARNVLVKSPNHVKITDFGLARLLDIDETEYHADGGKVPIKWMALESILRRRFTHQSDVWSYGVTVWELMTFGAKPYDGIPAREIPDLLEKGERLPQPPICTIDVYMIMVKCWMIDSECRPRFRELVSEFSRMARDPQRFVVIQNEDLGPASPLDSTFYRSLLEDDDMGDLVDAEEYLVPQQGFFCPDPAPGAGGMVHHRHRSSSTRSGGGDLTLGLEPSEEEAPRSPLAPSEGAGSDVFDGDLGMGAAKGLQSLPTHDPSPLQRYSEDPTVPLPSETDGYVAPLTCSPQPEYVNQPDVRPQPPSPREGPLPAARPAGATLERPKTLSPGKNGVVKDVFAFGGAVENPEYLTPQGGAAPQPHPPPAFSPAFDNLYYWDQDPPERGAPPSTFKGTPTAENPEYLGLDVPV

[12] = molecular target: Cyclin-dependent kinase 4 (Homo sapiens, UniProt P11802); test: Inhibitory activity against CDK4
Chain of Cyclin-dependent kinase 4 (P11802 whole entry): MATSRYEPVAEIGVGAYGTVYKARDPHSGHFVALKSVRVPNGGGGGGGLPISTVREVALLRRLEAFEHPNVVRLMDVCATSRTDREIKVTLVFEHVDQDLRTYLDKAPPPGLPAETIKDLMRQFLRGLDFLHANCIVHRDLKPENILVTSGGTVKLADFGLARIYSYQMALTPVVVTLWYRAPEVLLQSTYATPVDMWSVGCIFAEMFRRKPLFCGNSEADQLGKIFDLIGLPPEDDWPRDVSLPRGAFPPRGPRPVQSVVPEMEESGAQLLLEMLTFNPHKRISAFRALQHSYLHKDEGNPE

ASPC1 = test: Antiproliferative activity against human pancreatic tumor cell line AsPC1; type: functional, cell-based
Casein kinase II = Casein kinase II (Homo sapiens, UniProt P19784+P67870+P68400); test: Inhibitory activity against Casein Kinase 2; type: protein-complex assay
[13] = molecular target: Cyclin-dependent kinase 7 (Homo sapiens, UniProt P50613); test: Inhibitory activity against CDK7
Chain of Cyclin-dependent kinase 7 (P50613 whole entry): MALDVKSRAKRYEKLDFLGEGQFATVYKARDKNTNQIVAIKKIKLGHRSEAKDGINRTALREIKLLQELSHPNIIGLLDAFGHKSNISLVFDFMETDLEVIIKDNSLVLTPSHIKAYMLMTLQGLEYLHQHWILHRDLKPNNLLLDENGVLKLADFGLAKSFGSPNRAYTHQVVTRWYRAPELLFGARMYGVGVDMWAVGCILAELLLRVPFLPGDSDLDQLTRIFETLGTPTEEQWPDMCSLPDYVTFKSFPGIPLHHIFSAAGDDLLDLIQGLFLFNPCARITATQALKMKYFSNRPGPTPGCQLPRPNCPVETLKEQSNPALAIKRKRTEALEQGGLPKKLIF

[14] = molecular target: Glycogen synthase kinase-3 (Homo sapiens, UniProt P49840+P49841); test: Inhibitory activity against GSK3; type: protein assay
[15] = molecular target: Proto-oncogene tyrosine-protein kinase Src (Homo sapiens, UniProt P12931); test: Inhibitory activity against c-SRC
Chain of Proto-oncogene tyrosine-protein kinase Src (P12931 2-536 limits assumed): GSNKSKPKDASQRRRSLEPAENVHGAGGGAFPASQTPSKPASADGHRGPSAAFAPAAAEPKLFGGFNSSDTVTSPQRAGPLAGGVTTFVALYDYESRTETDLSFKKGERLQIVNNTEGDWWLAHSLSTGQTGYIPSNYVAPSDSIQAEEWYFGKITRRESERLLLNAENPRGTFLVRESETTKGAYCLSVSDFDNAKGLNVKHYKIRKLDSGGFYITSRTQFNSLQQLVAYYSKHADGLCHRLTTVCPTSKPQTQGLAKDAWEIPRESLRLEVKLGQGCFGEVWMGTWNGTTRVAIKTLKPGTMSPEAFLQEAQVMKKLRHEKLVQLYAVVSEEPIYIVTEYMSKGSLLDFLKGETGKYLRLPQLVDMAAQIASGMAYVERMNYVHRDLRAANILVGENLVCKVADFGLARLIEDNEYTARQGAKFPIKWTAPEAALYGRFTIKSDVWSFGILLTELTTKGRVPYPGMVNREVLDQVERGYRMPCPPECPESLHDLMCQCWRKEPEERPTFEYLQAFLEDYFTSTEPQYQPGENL

T47D = test: Antiproliferative activity against human breast tumor cell line T47D; type: functional, cell-based
LNCaP = test: Antiproliferative activity against human prostate tumor cell line LnCAP; type: functional, cell-based

Chain of Platelet-derived growth factor receptor beta (P09619 whole entry): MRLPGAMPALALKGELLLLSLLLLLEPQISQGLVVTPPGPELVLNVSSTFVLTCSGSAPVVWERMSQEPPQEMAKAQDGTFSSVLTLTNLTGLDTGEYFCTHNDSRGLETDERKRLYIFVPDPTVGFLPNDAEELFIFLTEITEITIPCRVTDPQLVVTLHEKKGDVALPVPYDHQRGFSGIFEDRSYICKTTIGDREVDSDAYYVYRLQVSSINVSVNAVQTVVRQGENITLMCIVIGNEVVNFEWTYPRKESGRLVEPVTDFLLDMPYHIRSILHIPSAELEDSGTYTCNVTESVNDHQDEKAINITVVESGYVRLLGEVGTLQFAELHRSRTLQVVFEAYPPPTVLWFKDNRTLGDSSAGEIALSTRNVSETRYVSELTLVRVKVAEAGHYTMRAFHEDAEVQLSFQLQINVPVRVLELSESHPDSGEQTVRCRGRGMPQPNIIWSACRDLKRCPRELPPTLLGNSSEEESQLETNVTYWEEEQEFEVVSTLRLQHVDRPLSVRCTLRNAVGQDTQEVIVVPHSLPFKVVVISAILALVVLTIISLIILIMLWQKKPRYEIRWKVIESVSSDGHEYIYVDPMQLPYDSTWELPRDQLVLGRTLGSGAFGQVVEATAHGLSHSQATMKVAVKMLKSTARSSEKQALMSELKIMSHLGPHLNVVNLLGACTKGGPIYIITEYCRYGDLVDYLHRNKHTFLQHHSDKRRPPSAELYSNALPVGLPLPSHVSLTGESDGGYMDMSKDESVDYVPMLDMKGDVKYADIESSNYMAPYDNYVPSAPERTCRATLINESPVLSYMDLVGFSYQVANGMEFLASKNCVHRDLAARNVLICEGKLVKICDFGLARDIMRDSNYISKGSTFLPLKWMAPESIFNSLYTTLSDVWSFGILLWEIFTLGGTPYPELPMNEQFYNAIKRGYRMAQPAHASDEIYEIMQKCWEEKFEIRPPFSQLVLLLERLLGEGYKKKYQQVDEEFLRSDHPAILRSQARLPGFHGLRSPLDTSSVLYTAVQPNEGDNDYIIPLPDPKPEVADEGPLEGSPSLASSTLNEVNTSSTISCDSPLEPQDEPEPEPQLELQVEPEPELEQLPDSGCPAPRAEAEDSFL

IC50 [1] [µM]	IC50 (NCI-H460) [µM]	IC50 (A-375) [µM]	IC50 (PC-3) [µM]	IC50 (U-87 MG) [µM]	IC50 (LoVo) [µM]	IC50 (ASPC1) [µM]	IC50 (T47D) [µM]	IC50 (LNCaP) [µM]	SMILES	IC50 (HUVEC) [µM]	also measured
0.41									COc1cc2c(cc1OC)-c1n[nH]c(Nc3ccc(Cl)c(Cl)c3)c1C2		
0.0042	0.01	0.007	0.027	13	0.017	0.592	0.032	0.009	COc1cc2c(cc1OC)-c1n[nH]c(Nc3cccc(F)c3)c1C2	4.87	IC50 [2]: > 100 µM; IC50 [3]: > 10 µM; IC50 [4]: 0.378 µM; IC50 [5]: > 10 µM; IC50 [6]: 45.8 µM; IC50 (Focal adhesion kinase 1): > 100 µM; IC50 [7]: 3.1 µM; IC50 [8]: 0.045 µM; IC50 (Insulin receptor): > 100 µM; IC50 [9]: > 100 µM; IC50 [10]: > 100 µM; IC50 [11]: > 10 µM; IC50 [12]: > 100 µM; IC50 (Casein kinase II): > 100 µM; IC50 [13]: 56.7 µM; IC50 [14]: 13 µM; IC50 [15]: 0.185 µM
	0.004	0.004		> 100	0.004	0.355	0.033	0.005	COc1cccc(Nc2[nH]nc3c2Cc2cc(OC)c(OC)cc2-3)c1	0.011	
0.005	0.006	0.006	0.018	> 100	0.006	0.331	0.037	0.002	COc1cc2c(cc1OC)-c1n[nH]c(Nc3cccc(Br)c3)c1C2	1.48	
0.017	8.4	8.85	31.2	> 50	2.7	6.82	4.41	1.2	COc1cc2c(cc1OC)-c1[nH]nc(-c3ccccc3)c1C2	1.39	
0.038	0.031	0.035	0.021	> 100	0.028	0.29	0.44	0.255	COc1cc2c(cc1OC)-c1n[nH]c(Nc3cccc(C(F)(F)F)c3)c1C2	2.5	
> 0.8									COc1cc2c(cc1OC)-c1n[nH]c(Nc3cccc(C(=O)O)c3)c1C2		
5.42									COc1cc2c(cc1OC)-c1n[nH]c(Nc3ccc(Cl)cc3Cl)c1C2		
				24					COc1cc2c(cc1OC)-c1n[nH]c(Nc3cccc(Cl)c3)c1C2		
0.31									COc1cc2c(cc1OC)-c1n[nH]c(Nc3cc(Cl)cc(Cl)c3)c1C2		
	0.029	0.015		> 100	0.019	4.45	0.042	0.001	COc1cc2c(cc1OC)-c1n[nH]c(Nc3cccc(C)c3)c1C2	0.008	
0.033									COC(=O)c1cccc(Nc2[nH]nc3c2Cc2cc(OC)c(OC)cc2-3)c1		
	2.8	1.19	7.34	> 100	0.798	> 10	4.7	1.7	COc1cccc2c1Cc1c-2n[nH]c1Nc1ccccc1	0.283	
		> 50	> 10	> 100		> 10	> 10	14.4	COc1ccc2c(c1)-c1n[nH]c(Nc3ccccc3)c1C2		
6.22									COc1cc2c(cc1OC)-c1n[nH]c(Nc3cc(Cl)ccc3Cl)c1C2		
0.009	0.353	0.062	0.108	21	0.124	2.16	0.42	0.6	COc1cc2c(cc1OC)-c1n[nH]c(Nc3ccccc3)c1C2	0.031	
